# Data from patent US4599310A, “Process for producing antitumor antibiotic compound” (priority 1985, dated 1986).
# Bridge positions count the residues as written; N and C are the ends. Square brackets hold non-standard residues; d marks the D form. Peptide text beside a SMILES is read from it. I, II: the chains in the order shown. * marks the point of attachment. Quinaldoyl(3-OH) = O=C(c1nc2ccccc2cc1O)*; NMeV = CN[CH](C(=O)O)C(C)C; Pip = O=C(O)[CH]1CCCCN1; Sar = CNCC(=O)O
# Tests used:
# [1] = tested on: S. aureus 209P-A9497; assay: Antibacterial activity, serial two-fold agar dilution method; format: cell-based; conditions: Staphylococcus aureus, read-out: Minimum Inhibitory Concentration (MIC)
# Experimental: (§1) The antibacterial activities of sandramycin were determined by a serial two-fold agar dilution method. The results are shown in Table 5 in comparison with the activities of luzopeptin A and echinomycin.
# [2] = tested on: P-388 leukemia; assay: Transplantable mouse tumor P-388 leukemia; format: in vivo, mouse (CDF1 female mice); conditions: for MST (median survival time): control MST 9.0 days
# Experimental: The methodology used generally followed the protocols of the National Cancer Institute [Cancer Chemotherapy Rep. Part 3, 3, 1-103 (1972)]. The essential experimental details are given at the bottom of Table 6. Two different dose regimens were tested: single dose on day 1 and daily for 5 days. With both schedules, the optimum dose appears to be about 0.2 mg/kg/injection.
# Tumor inoculum: 10^6 ascites cells implanted i.p.
# Evaluation: MST = median survival time
# Effect: % T/C ≥ (MST treated/MST control) × 100
# Criteria: % T/C = 125 considered significant antitumor activity
# AWC: average weight change (treatedcontrol) in grams (on day 4)
# [3] = tested on: gram-positive organisms such as Bacillus subtilis and Staphylococcus aureus as well as Streptococcus faecalis; assay: Antibacterial activity, serial two-fold agar dilution method (statement in words); format: cell-based
# Experimental: as §1
smiles,measurement,setting,value
"CS[C@H]1SC[C@H]2C(=O)N(C)[C@@H](C(C)C)C(=O)OC[C@@H](NC(=O)c3cnc4ccccc4n3)C(=O)N[C@@H](C)C(=O)N(C)[C@@H]1C(=O)N(C)[C@@H](C(C)C)C(=O)OC[C@@H](NC(=O)c1cnc3ccccc3n1)C(=O)N[C@@H](C)C(=O)N2C [Echinomycin, reference compound]",MIC,[1],0.012 µg/mL
"CC(C)C1C(=O)OCC(NC(=O)c2nc3ccccc3cc2O)C(=O)N2CCCCC2C(=O)NCC(=O)N(C)CC(=O)N(C)C(C(C)C)C(=O)OCC(NC(=O)c2nc3ccccc3cc2O)C(=O)N2CCCCC2C(=O)NCC(=O)N(C)CC(=O)N1C (stereo not drawn) [Sandramycin] (I: {Quinaldoyl(3-OH)}-S[Pip]G[Sar][NMeV] / II: {Quinaldoyl(3-OH)}-S[Pip]G[Sar][NMeV]; ester I:1-II:C, I:C-II:1; configuration not given here)",optimum dose,"[2]; both schedules: single dose on day 1 and daily for 5 days, IP",about 0.2 mg/kg/injection
same,AWC (average weight change) Day 4,"[2]; d. 1, IP, 0.025 mg/kg/inj.",-0.2 gm
same,MST (median survival time),"[2]; d. 1, IP, 0.025 mg/kg/inj.",9.5 days
same,AWC (average weight change) Day 4,"[2]; d. 1, IP, 0.05 mg/kg/inj.",-0.6 gm
same,MST (median survival time),"[2]; d. 1, IP, 0.05 mg/kg/inj.",10.0 days
same,AWC (average weight change) Day 4,"[2]; d. 1, IP, 0.1 mg/kg/inj.",-0.9 gm
same,MST (median survival time),"[2]; d. 1, IP, 0.1 mg/kg/inj.",11.0 days
same,AWC (average weight change) Day 4,"[2]; d. 1, IP, 0.2 mg/kg/inj.",-1.4 gm
same,AWC (average weight change) Day 4,"[2]; d. 1, IP, 0.4 mg/kg/inj.",-0.7 gm
same,MST (median survival time),"[2]; d. 1, IP, 0.4 mg/kg/inj.",11.0 days
same,AWC (average weight change) Day 4,"[2]; d. 1, IP, 0.8 mg/kg/inj.",-1.6 gm
same,MST (median survival time),"[2]; d. 1, IP, 0.8 mg/kg/inj.",10.0 days
same,AWC (average weight change) Day 4,"[2]; d. 1, IP, 1.6 mg/kg/inj.",-1.3 gm
same,AWC (average weight change) Day 4,"[2]; d. 1, IP, 3.2 mg/kg/inj.",-2.8 gm
same,MST (median survival time),"[2]; d. 1, IP, 3.2 mg/kg/inj.",Toxic
same,AWC (average weight change) Day 4,"[2]; d. 1→5, IP, 0.0125 mg/kg/inj.",-0.9 gm
same,Survivors Day 5,"[2]; d. 1→5, IP, 0.0125 mg/kg/inj.",6/6
same,AWC (average weight change) Day 4,"[2]; d. 1→5, IP, 0.025 mg/kg/inj.",-1.4 gm
same,MST (median survival time),"[2]; d. 1→5, IP, 0.025 mg/kg/inj.",10.0 days
same,AWC (average weight change) Day 4,"[2]; d. 1→5, IP, 0.05 mg/kg/inj.",-1.8 gm
same,MST (median survival time),"[2]; d. 1→5, IP, 0.05 mg/kg/inj.",8.5 days
same,AWC (average weight change) Day 4,"[2]; d. 1→5, IP, 0.1 mg/kg/inj.",-0.8 gm
same,AWC (average weight change) Day 4,"[2]; d. 1→5, IP, 0.2 mg/kg/inj.",-1.7 gm
same,MST (median survival time),"[2]; d. 1→5, IP, 0.2 mg/kg/inj.",12.0 days
same,AWC (average weight change) Day 4,"[2]; d. 1→5, IP, 0.4 mg/kg/inj.",-1.3 gm
same,MST (median survival time),"[2]; d. 1→5, IP, 0.4 mg/kg/inj.",11.0 days
same,AWC (average weight change) Day 4,"[2]; d. 1→5, IP, 0.8 mg/kg/inj.",-1.4 gm
same,MST (median survival time),"[2]; d. 1→5, IP, 0.8 mg/kg/inj.",6.0 days
same,AWC (average weight change) Day 4,"[2]; d. 1→5, IP, 1.6 mg/kg/inj.",-1.7 gm
same,MST (median survival time),"[2]; d. 1→5, IP, 1.6 mg/kg/inj.",Toxic
same,antibacterial activity,[3],strongly inhibitory
same,MIC,[1],0.012 µg/mL
